Assay results reported in BindingDB's records for doi:10.1016/s0960-894x(03)00020-9 (Seoul National University, 2003).

Key:
[1] = target: Methionine--tRNA ligase (Escherichia coli) (UniProt P00959); assay: Inhibitory activity against Escherichia coli Methionyl-tRNA synthetase was determined
[2] = target: Isoleucine--tRNA ligase (Escherichia coli) (UniProt P00956); assay: Inhibitory activity against Escherichia coli Isoleucyl-tRNA synthetase was determined
[3] = target: Methionine--tRNA ligase (Escherichia coli) (UniProt P00959); assay: Inhibitory activity against Escherichia coli Methionyl-tRNA synthetase was determined; remark: listed apart in the source
[4] = target: Isoleucine--tRNA ligase (Escherichia coli) (UniProt P00956); assay: Inhibitory activity against Escherichia coli Isoleucyl-tRNA synthetase was determined; remark: listed apart in the source

Chain of Methionine--tRNA ligase (Escherichia coli) (P00959 whole entry, looked up): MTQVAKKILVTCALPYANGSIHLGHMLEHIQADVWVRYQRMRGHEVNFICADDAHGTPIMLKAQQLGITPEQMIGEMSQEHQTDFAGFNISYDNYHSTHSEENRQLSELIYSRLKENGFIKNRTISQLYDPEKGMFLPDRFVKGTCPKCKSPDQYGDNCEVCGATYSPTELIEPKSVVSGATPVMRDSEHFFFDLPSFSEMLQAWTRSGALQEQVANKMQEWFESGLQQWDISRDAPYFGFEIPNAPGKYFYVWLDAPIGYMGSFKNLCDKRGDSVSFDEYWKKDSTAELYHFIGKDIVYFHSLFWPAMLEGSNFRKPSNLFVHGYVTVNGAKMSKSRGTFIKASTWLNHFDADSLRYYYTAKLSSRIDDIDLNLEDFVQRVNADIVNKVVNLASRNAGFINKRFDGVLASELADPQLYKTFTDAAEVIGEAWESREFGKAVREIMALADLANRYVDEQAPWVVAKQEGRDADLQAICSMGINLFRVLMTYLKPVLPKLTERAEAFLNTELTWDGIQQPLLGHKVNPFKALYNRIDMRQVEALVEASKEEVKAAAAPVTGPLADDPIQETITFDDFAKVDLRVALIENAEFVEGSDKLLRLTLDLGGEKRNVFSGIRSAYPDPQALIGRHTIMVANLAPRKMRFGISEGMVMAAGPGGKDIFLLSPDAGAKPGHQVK
Chain of Isoleucine--tRNA ligase (Escherichia coli) (P00956 whole entry, looked up): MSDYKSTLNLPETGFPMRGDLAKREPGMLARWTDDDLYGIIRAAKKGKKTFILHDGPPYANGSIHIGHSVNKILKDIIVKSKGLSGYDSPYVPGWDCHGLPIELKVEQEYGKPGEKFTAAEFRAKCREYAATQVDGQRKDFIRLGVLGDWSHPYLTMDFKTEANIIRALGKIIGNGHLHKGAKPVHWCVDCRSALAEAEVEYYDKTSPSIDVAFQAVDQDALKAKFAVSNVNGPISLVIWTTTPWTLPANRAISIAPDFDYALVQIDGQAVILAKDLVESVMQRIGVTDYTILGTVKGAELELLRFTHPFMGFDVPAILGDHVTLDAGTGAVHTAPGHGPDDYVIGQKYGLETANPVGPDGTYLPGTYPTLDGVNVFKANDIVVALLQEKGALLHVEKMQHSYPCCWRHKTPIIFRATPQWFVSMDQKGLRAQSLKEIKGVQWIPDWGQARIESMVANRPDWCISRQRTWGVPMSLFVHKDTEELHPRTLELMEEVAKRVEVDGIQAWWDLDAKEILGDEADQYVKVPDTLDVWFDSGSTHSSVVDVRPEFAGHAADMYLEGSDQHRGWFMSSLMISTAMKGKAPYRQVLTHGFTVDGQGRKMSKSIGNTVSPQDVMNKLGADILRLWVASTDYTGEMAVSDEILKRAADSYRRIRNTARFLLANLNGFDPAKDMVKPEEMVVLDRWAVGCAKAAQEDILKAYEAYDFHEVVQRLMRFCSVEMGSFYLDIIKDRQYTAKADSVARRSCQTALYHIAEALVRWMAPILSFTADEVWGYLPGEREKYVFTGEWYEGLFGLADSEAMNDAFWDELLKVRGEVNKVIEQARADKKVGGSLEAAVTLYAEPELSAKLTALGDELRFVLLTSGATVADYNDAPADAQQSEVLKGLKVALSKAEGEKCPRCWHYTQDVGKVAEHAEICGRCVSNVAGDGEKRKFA

Work on `C#Cc1nc(N)c2ncn(C3O[C@H](COS(=O)(=O)NC(=O)[C@@H](N)CCSC)[C@@H](O)[C@H]3O)c2n1` (stereo partly specified) yielded an IC50 [1] of 1.1 µM.
For `CSCC[C@H](N)C(=O)NS(=O)(=O)OC[C@H]1OC(n2cnc3c(N)nc(Cl)nc32)[C@H](O)[C@@H]1O` (stereo partly specified), the IC50 [1] was 7.4 µM.
For `C#Cc1nc(N)c2ncn(C3O[C@H](COS(=O)(=O)NC(=O)[C@@H](N)[C@@H](C)CC)[C@@H](O)[C@H]3O)c2n1` (stereo partly specified), the IC50 [2] was 0.039 µM.
`CC[C@H](C)[C@H](N)C(=O)NS(=O)(=O)OC[C@H]1OC(n2cnc3c(NC)nc(I)nc32)[C@H](O)[C@@H]1O` (stereo partly specified) showed an IC50 [2] of 22.2 µM.
`CC[C@H](C)[C@H](N)C(=O)NS(=O)(=O)N(O)C[C@H]1OC(n2cnc3c(N)ncnc32)[C@H](O)[C@@H]1O` (stereo partly specified) was tested, and the IC50 [2] was 132 µM.
Work on `CC[C@H](C)[C@H](N)C(=O)NS(=O)(=O)OC[C@H]1OC(n2cnc3c(N)nc(Cl)nc32)[C@H](O)[C@@H]1O` (stereo partly specified) yielded an IC50 [2] of 5.5 µM.
Compound `CSCC[C@H](N)C(=O)NS(=O)(=O)OC[C@H]1O[C@@H](n2cnc3c(N)ncnc32)[C@H](O)[C@@H]1O` has an IC50 [3] of 0.007 µM.
Compound `CC[C@H](C)[C@H](N)C(=O)NS(=O)(=O)OC[C@H]1OC(n2cnc3c(N)nc(I)nc32)[C@H](O)[C@@H]1O` (stereo partly specified) has an IC50 [2] of 0.014 µM.
`CC[C@H](C)[C@H](N)C(=O)NS(=O)(=O)OC[C@H]1O[C@@H](n2cnc3c(N)ncnc32)[C@H](O)[C@@H]1O` was tested, and the IC50 [4] was 0.098 µM.
Compound `CSCC[C@H](N)C(=O)NS(=O)(=O)N(O)C[C@H]1OC(n2cnc3c(N)ncnc32)[C@H](O)[C@@H]1O` (stereo partly specified) has an IC50 [1] of 106 µM.
`CC[C@H](C)[C@H](N)C(=O)NS(=O)(=O)NOC[C@H]1OC(n2cnc3c(N)ncnc32)[C@H](O)[C@@H]1O` (stereo partly specified) gave an IC50 [2] of 12.8 µM.
`CCCCC#Cc1nc(N)c2ncn(C3O[C@H](COS(=O)(=O)NC(=O)[C@@H](N)[C@@H](C)CC)[C@@H](O)[C@H]3O)c2n1` (stereo partly specified) gave an IC50 [2] of 1.1 µM.
`CCCCC#Cc1nc(N)c2ncn(C3O[C@H](COS(=O)(=O)NC(=O)[C@@H](N)CCSC)[C@@H](O)[C@H]3O)c2n1` (stereo partly specified) gave an IC50 [1] of 1.9 µM.
`CNc1nc(I)nc2c1ncn2C1O[C@H](COS(=O)(=O)NC(=O)[C@@H](N)CCSC)[C@@H](O)[C@H]1O` (stereo partly specified) was tested, and the IC50 [1] was 191 µM.
With `CSCC[C@H](N)C(=O)NS(=O)(=O)OC[C@H]1OC(n2cnc3c(N)nc(I)nc32)[C@H](O)[C@@H]1O` (stereo partly specified) the IC50 [1] was 1.2 µM.
For `CSCC[C@H](N)C(=O)NS(=O)(=O)NOC[C@H]1OC(n2cnc3c(N)ncnc32)[C@H](O)[C@@H]1O` (stereo partly specified), the IC50 [1] was 19.7 µM.
